Drawing on US20250154134A1, “COMPOUND AS FAK INHIBITOR AND USE THEREOF” (WIGEN BIOMEDICINE TECHNOLOGY (SHANGHAI) CO., LTD., priority 2022, published 2025), this text covers IC50 for 33 compounds.

The target of one test is FAK recombinant protein (Homo sapiens (Human), UniProt Q05397). As to the kind of experiment: Inhibitory activity against FAK enzyme (HTRF, TK substrate). Format: biochemical. The procedure:
A compound serially diluted with DMSO was mixed with a FAK recombinant protein. After the mixture was left to stand at room temperature for 10 min, a biotin-labeled TK substrate (TK) and ATP were added. […] The inhibition percentage and IC50 of the compound were calculated compared to the DMSO control group.

The subject of test [1] is PC3 cells. Put plainly: PC3 cell proliferation, 3D activity assay (3D culture, 14 days). Type of test: cell-based, human. Conditions: Homo sapiens, PC-3, 336 h, read-out: 3D inhibitory activity against PC3 cells IC50.
Test [2] concerns PC3 cells. As to the kind of experiment: PC3 cell proliferation, 2D activity assay (Cell Titer-Lumi, 72 h). To be noted: Homo sapiens, PC-3, read-out: 2D inhibitory activity against PC3 cells IC50. Format: cell-based, human.

Chain of FAK recombinant protein (Q05397 whole entry): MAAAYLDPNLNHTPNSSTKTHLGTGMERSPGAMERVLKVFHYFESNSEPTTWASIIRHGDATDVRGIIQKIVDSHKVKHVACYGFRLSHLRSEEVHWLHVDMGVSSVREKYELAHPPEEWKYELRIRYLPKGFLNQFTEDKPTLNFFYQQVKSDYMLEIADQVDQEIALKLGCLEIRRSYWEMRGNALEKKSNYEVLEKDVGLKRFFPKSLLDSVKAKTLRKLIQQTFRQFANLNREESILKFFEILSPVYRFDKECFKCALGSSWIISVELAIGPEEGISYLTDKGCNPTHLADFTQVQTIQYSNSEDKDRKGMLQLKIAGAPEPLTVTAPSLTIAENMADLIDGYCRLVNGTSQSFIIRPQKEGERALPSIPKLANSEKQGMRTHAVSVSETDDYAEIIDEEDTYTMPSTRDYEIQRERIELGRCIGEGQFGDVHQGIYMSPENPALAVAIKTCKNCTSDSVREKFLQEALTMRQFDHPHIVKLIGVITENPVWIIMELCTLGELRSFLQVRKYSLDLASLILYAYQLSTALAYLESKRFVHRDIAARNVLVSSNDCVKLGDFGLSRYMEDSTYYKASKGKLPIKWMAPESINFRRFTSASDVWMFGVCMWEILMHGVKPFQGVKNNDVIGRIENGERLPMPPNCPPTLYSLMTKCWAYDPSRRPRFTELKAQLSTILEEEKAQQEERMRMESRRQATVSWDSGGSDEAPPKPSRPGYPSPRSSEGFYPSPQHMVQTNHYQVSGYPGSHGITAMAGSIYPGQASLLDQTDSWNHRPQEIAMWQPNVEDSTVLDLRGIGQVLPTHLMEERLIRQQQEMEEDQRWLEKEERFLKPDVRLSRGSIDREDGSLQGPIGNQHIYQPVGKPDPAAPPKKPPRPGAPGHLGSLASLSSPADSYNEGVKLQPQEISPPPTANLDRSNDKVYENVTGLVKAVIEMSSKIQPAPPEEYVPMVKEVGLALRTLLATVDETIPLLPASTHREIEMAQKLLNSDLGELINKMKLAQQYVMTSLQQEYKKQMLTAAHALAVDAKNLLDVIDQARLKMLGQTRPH

Turning to `COc1cc(C(=O)NC2COC3(CCN(C)C3)C2)ccc1Nc1ncc(C(F)(F)F)c(Cc2cccc3c2C(=O)N(C)C32CC2)n1` (stereo not drawn) [Compound 105], the IC50 is less than 20 nM on FAK recombinant protein, 5 to 50 nM in the test with PC3 cells [1] and greater than 2000 nM with PC3 cells [2].

Take `COc1cc(C(=O)NC2CCC3(CC2)CCN(C)C3)ccc1Nc1ncc(C(F)(F)F)c(Cc2cccc3c2C(=O)N(C)C32CC2)n1` (stereo not drawn) [Compound 106]: the IC50 on FAK recombinant protein is less than 20 nM; in the test on PC3 cells [1], 5 to 50 nM; in the test with PC3 cells [2], greater than 2000 nM.

`COc1cc(C(=O)NC2CCC3(CC2)CCN(C)CC3)ccc1Nc1ncc(C(F)(F)F)c(Cc2cccc3c2C(=O)N(C)C32CC2)n1` [Compound 107]: the half-maximal inhibitory concentration (IC50) on FAK recombinant protein was less than 20 nM; in the test with PC3 cells [1], greater than 50 nM; with PC3 cells [2], greater than 2000 nM.

Turning to `COc1cc(C(=O)NC2CCC23CCN(C)CC3)ccc1Nc1ncc(C(F)(F)F)c(Cc2cccc3c2C(=O)N(C)C32CC2)n1` (stereo not drawn) [Compound 108], the IC50 on FAK recombinant protein is less than 20 nM; in the test on PC3 cells [1], 5 to 50 nM; in the test on PC3 cells [2], greater than 2000 nM.

Consider `COc1cc(C(=O)NC2CCC3(CC2)CCN3C)ccc1Nc1ncc(C(F)(F)F)c(Cc2cccc3c2C(=O)N(C)C32CC2)n1` (stereo not drawn) [Compound 109], for which the IC50 on FAK recombinant protein was less than 20 nM; in the test on PC3 cells [1], 5 to 50 nM; with PC3 cells [2], greater than 2000 nM.

Consider `COc1cc(C(=O)NC2CCN3CCN(C)C3C2)ccc1Nc1ncc(C(F)(F)F)c(Cc2cccc3c2C(=O)N(C)C32CC2)n1` (stereo not drawn) [Compound 110], for which the IC50 at FAK recombinant protein was less than 20 nM; in the test with PC3 cells [1], greater than 50 nM; in the test with PC3 cells [2], greater than 2000 nM.

Turning to `COc1cc(N2CCN(C)CC2)ccc1Nc1ncc(C(F)(F)F)c(Cc2cccc3c2C(=O)N(C)C32CC2)n1` [Compound 111], the IC50 on FAK recombinant protein was less than 20 nM; in the test on PC3 cells [1], 5 to 50 nM; with PC3 cells [2] it was greater than 2000 nM.

In the case of `COc1cc(N2CCOCC2)ccc1Nc1ncc(C(F)(F)F)c(Cc2cccc3c2C(=O)N(C)C32CC2)n1` [Compound 112], the half-inhibitory concentration (IC50) is less than 20 nM on FAK recombinant protein, 5 to 50 nM with PC3 cells [1] and greater than 2000 nM in the test on PC3 cells [2].

As to `COc1cc(N2CCC(N3CCN(C)CC3)CC2)ccc1Nc1ncc(C(F)(F)F)c(Cc2cccc3c2C(=O)N(C)C32CC2)n1` [Compound 113], the IC50 at FAK recombinant protein is less than 20 nM; with PC3 cells [1], 5 to 50 nM; in the test with PC3 cells [2] it was greater than 2000 nM.

Consider `COc1cc(C(=O)NC2CCN(C)CC2)ccc1Nc1ncc(C)c(Oc2cccc3c2C(=O)N(C)C32CC2)n1` [Compound 115], for which the values for the IC50 on FAK recombinant protein, in the test on PC3 cells [1] and in the test with PC3 cells [2] were less than 20 nM, greater than 50 nM and greater than 2000 nM, respectively.

As to `COc1cc(C(=O)NC2CCN(C)CC2)ccc1Nc1ncc(Br)c(Oc2cccc3c2C(=O)N(C)C32CC2)n1` [Compound 116], the concentration for half-maximal inhibition (IC50) at FAK recombinant protein is less than 20 nM; with PC3 cells [1], 5 to 50 nM; in the test on PC3 cells [2], greater than 2000 nM.

As to `COc1cc(C2CCN(C)CC2)c(F)cc1Nc1ncc(C(F)(F)F)c(Oc2cccc3c2C(=O)N(C)C32CC2)n1` [Compound 119, 4′-((2-((5-fluoro-2-methoxy-4-(1-methylpiperidin-4-yl)phenyl)amino)-5-(trifluoromethyl)pyrimidin-4-yl)oxy)-2′-methylspiro[cyclopropane-1,1′-isoindolin]-3′-one], the results for the IC50 on FAK recombinant protein, in the test on PC3 cells [1] and in the test with PC3 cells [2] were less than 20 nM, less than 5 nM and greater than 2000 nM, respectively.

For the compound `COc1cc(N2CCN(C)CC2)c(F)cc1Nc1ncc(C(F)(F)F)c(Oc2cccc3c2C(=O)N(C)C32CC2)n1` [Compound 122], the figures for the half-inhibitory concentration (IC50) on FAK recombinant protein, in the test on PC3 cells [1] and in the test on PC3 cells [2] were less than 20 nM, less than 5 nM and greater than 2000 nM, respectively.

Regarding `COCCN1CCN(c2cc(OC)c(Nc3ncc(C(F)(F)F)c(Oc4cccc5c4C(=O)N(C)C54CC4)n3)cc2F)CC1` [Compound 123], the IC50 on FAK recombinant protein is less than 20 nM; with PC3 cells [1], less than 5 nM; in the test with PC3 cells [2] it was greater than 2000 nM.

`COc1cc(N2CCN(CC(=O)N(C)C)CC2)c(F)cc1Nc1ncc(C(F)(F)F)c(Oc2cccc3c2C(=O)N(C)C32CC2)n1` [Compound 124]: the 50% inhibitory concentration (IC50) on FAK recombinant protein is less than 20 nM; in the test with PC3 cells [1], less than 5 nM; with PC3 cells [2] it was greater than 2000 nM.

As to `COc1cc(N2CC3(CN(C)C3)C2)c(F)cc1Nc1ncc(C(F)(F)F)c(Oc2cccc3c2C(=O)N(C)C32CC2)n1` [Compound 125], the IC50 at FAK recombinant protein is less than 20 nM; in the test with PC3 cells [1] it was less than 5 nM; with PC3 cells [2] it was greater than 2000 nM.

On to `COc1cc(N2CCC3(CC2)CN(C)C3)c(F)cc1Nc1ncc(C(F)(F)F)c(Oc2cccc3c2C(=O)N(C)C32CC2)n1` [Compound 126], for which the figures for the IC50 on FAK recombinant protein, in the test with PC3 cells [1] and with PC3 cells [2] were less than 20 nM, less than 5 nM and greater than 2000 nM, respectively.

As to `COc1cc(N2CCC3(CCN(C)C3)C2)c(F)cc1Nc1ncc(C(F)(F)F)c(Oc2cccc3c2C(=O)N(C)C32CC2)n1` (stereo not drawn) [Compound 127], the IC50 is less than 20 nM on FAK recombinant protein, less than 5 nM in the test on PC3 cells [1] and greater than 2000 nM in the test with PC3 cells [2].

As for `COc1cc(N2CCC(N(C)C)CC2)c(F)cc1Nc1ncc(C(F)(F)F)c(Oc2cccc3c2C(=O)N(C)C32CC2)n1` [Compound 128], the results for the 50% inhibitory concentration (IC50) on FAK recombinant protein, in the test with PC3 cells [1] and in the test with PC3 cells [2] were less than 20 nM, less than 5 nM and greater than 2000 nM, respectively.

`COc1cc(N2CCN(C)CC2=O)c(F)cc1Nc1ncc(C(F)(F)F)c(Oc2cccc3c2C(=O)N(C)C32CC2)n1` [Compound 129]: the IC50 at FAK recombinant protein was less than 20 nM; in the test on PC3 cells [1], 5 to 50 nM; in the test with PC3 cells [2], greater than 2000 nM.

Take `COc1cc(N2CCN(C)CC2)ccc1Nc1ncc(C2CC2)c(Oc2cccc3c2C(=O)N(C)C32CC2)n1` [Compound 130, 4′-((5-cyclopropyl-2-((2-methoxy-4-(4-methylpiperazin-1-yl)phenyl)amino)pyrimidin-4-yl)oxy)-2′-methylspiro[cyclopropane-1,1′-isoindolin]-3′-one]: the half-maximal inhibitory concentration (IC50) was less than 20 nM on FAK recombinant protein, 5 to 50 nM in the test with PC3 cells [1] and greater than 2000 nM in the test with PC3 cells [2].

For `COc1cc(N2CC3(CCN(C)CC3)C2)ccc1Nc1ncc(C2CC2)c(Oc2cccc3c2C(=O)N(C)C32CC2)n1` [Compound 131, 4′-((5-cyclopropyl-2-((2-methoxy-4-(7-methyl-2,7-diazaspiro[3.5]nonan-2-yl)phenyl)amino)pyrimidin-4-yl)oxy)-2′-methylspiro[cyclopropane-1,1′-isoindolin]-3′-one], the half-inhibitory concentration (IC50) on FAK recombinant protein was less than 20 nM; in the test on PC3 cells [1], 5 to 50 nM; in the test with PC3 cells [2] it was greater than 2000 nM.

Consider `COc1cc(C(=O)NC2CC3(CCN(C)CC3)C2)c(F)cc1Nc1ncc(Cl)c(Oc2cccc3c2C(=O)N(C)C32CC2)n1` [Compound 132, 4-((5-chloro-4-((2′-methyl-3′-oxospiro[cyclopropane-1,1′-isoindolin]-4′-yl)oxy)pyrimidin-2-yl)amino)-2-fluoro-5-methoxy-N-(7-methyl-7-azaspiro[3.5]nonan-2-yl)benzamide], for which the IC50 is less than 20 nM on FAK recombinant protein, 5 to 50 nM in the test on PC3 cells [1] and greater than 2000 nM in the test on PC3 cells [2].

For `COc1cc(C(=O)NC2CC3(CCN(C)CC3)C2)ccc1Nc1ncc(Cl)c(Oc2cccc3c2C(=O)N(C)C32CC2)n1` [Compound 133, 4-((5-chloro-4-((2′-methyl-3′-oxospiro[cyclopropane-1,1′-isoindolin]-4′-yl)oxy)pyrimidin-2-yl)amino)-3-methoxy-N-(7-methyl-7-azaspiro[3.5]nonan-2-yl)benzamide], the IC50 at FAK recombinant protein is less than 20 nM; in the test with PC3 cells [1] it was 5 to 50 nM; in the test with PC3 cells [2] it was greater than 2000 nM.

Take `COc1cc(C2CCN(C)CC2)c(F)cc1Nc1ncc(Cl)c(Oc2cccc3c2C(=O)N(C)C32CC2)n1` [Compound 134, 4′-((5-chloro-2-((5-fluoro-2-methoxy-4-(1-methylpiperidin-4-yl)phenyl)amino)pyrimidin-4-yl)oxy)-2′-methylspiro[cyclopropane-1,1′-isoindolin]-3′-one]: the IC50 at FAK recombinant protein was less than 20 nM; in the test on PC3 cells [1] it was less than 5 nM; with PC3 cells [2] it was greater than 2000 nM.

For the compound `COc1cc(C2CCN(C)CC2)ccc1Nc1ncc(Cl)c(Oc2cccc3c2C(=O)N(C)C32CC2)n1` [Compound 135, 4′-((5-chloro-2-((2-methoxy-4-(1-methylpiperidin-4-yl)phenyl)amino)pyrimidin-4-yl)oxy)-2′-methylspiro[cyclopropane-1,1′-isoindolin]-3′-one], the IC50 at FAK recombinant protein is less than 20 nM; with PC3 cells [1] it was less than 5 nM; in the test with PC3 cells [2], greater than 2000 nM.

For the compound `COc1cc(N2CCC(N3CCN(C)CC3)CC2)c(F)cc1Nc1ncc(Cl)c(Oc2cccc3c2C(=O)N(C)C32CC2)n1` [Compound 138], the concentration for half-maximal inhibition (IC50) on FAK recombinant protein is less than 20 nM; with PC3 cells [1], less than 5 nM; with PC3 cells [2], greater than 2000 nM.

For the compound `COc1cc(N2CCN(C)CC2)c(F)cc1Nc1ncc(Cl)c(Oc2cccc3c2C(=O)N(C)C32CC2)n1` [Compound 140], the results for the half-inhibitory concentration (IC50) at FAK recombinant protein, with PC3 cells [1] and in the test on PC3 cells [2] were less than 20 nM, 5 to 50 nM and greater than 2000 nM, respectively.

`COCCN1CCN(c2ccc(Nc3ncc(Cl)c(Oc4cccc5c4C(=O)N(C)C54CC4)n3)c(OC)c2)CC1` [Compound 142]: the IC50 at FAK recombinant protein was less than 20 nM; with PC3 cells [1], less than 5 nM; with PC3 cells [2], greater than 2000 nM.

For the compound `COCCN1CCN(c2cc(OC)c(Nc3ncc(Cl)c(Oc4cccc5c4C(=O)N(C)C54CC4)n3)cc2F)CC1` [Compound 143], the half-inhibitory concentration (IC50) on FAK recombinant protein was less than 20 nM; in the test with PC3 cells [1] it was less than 5 nM; in the test on PC3 cells [2] it was greater than 2000 nM.

Take `COc1cc(N2CCN(CC(=O)N(C)C)CC2)ccc1Nc1ncc(Cl)c(Oc2cccc3c2C(=O)N(C)C32CC2)n1` [Compound 144]: the IC50 is less than 20 nM at FAK recombinant protein, less than 5 nM with PC3 cells [1] and greater than 2000 nM with PC3 cells [2].

With `COc1cc(N2CC3(CN(C)C3)C2)c(F)cc1Nc1ncc(Cl)c(Oc2cccc3c2C(=O)N(C)C32CC2)n1` [Compound 145], the IC50 on FAK recombinant protein was less than 20 nM; in the test with PC3 cells [1] it was 5 to 50 nM; with PC3 cells [2] it was greater than 2000 nM.

On to `COc1cc(N2CC3(CN(C)C3)C2)ccc1Nc1ncc(Cl)c(Oc2cccc3c2C(=O)N(C)C32CC2)n1` [Compound 146], for which the IC50 was less than 20 nM on FAK recombinant protein, 5 to 50 nM in the test with PC3 cells [1] and greater than 2000 nM with PC3 cells [2].

As usually defined, the IC50 is the concentration at which inhibition is half-maximal.
